Results on 15 molecules are retold here after patent US10077261B2, “Imidazolin-5-one derivative useful as FASN inhibitors for the treatment of cancer” (Janssen Pharmaceutica NV, priority 2012, dated 2018).

Assay [1] addresses T1, hFASN enzyme (full length) (Homo sapiens, UniProt P49327).
T1 construct: 10 μL hFASN enzyme (full length, 300 ng, purified in house); made in house
Nature of the assay: Fatty Acid Synthase (FASN) inhibition scintillation proximity assay. The assay is classed as biochemical. The conditions noted are these: for inhibition at 10 µM: read-out: Human FASN % inhibition @ 10 μM, 10 μM test compound; for IC50: read-out: Human FASN pIC50 (converted). A digest of the protocol: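 Scintillation proximity format: in-house full-length enzyme, 300 ng per well, pH 7.5 phosphate/DTT buffer, ³H-acetyl-CoA and malonyl-CoA. Emission counted on LEADseeker at 610 nm at least 24 h after stopping.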
For orientation: SPA uses beads or plates that emit light when radiolabelled molecules are held near them.

Assay [2] has as its system A2780 ovarian cells. Nature of the assay: A2780 ovarian cell proliferation assay in lipid reduced medium, with palmitate (MTT). The assay is classed as cell-based. The conditions noted are these: Homo sapiens, A2780, 96 h; read-out: pIC50 A2780 Ovarian Cell, With Palmitate (converted). A digest of the protocol:
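In this palmitate-supplemented format, compound dilutions (30 μM down to 0.01 μM) are added to cells in lipid-reduced serum with 25 μM palmitate, 0.2% fatty-acid-free BSA and 0.25% ethanol. After four days (96 h) MTT absorbance at 544 nm is recorded and fitted by minimum sum of squares.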

Assay [3] concerns A2780 ovarian cells. Nature of the assay: A2780 ovarian cell proliferation assay in lipid reduced medium, without palmitate (MTT). It counts as cell-based. The conditions noted are these: Homo sapiens, A2780, 96 h; read-out: pIC50 A2780 Ovarian Cell, Without Palmitate (converted).
Assay [4] relates to LNCaP-Vancouver prostate cells. As to the kind of experiment: In vitro LNCaP Vancouver prostate cell proliferation assay in lipid reduced medium. The assay is classed as cell-based. The note with it: read-out: pIC50 LNCaP_Vancouver prostate cell (converted).
For assay [5], the system named is PC-3M-Luc-C6 prostate cells. Nature of the assay: In vitro PC-3M-Luc-C6 prostate cell proliferation assay in lipid reduced medium. The conditions noted are these: 96 h, read-out: pIC50 PC-3M-Luc-C6 prostate cell (converted). It counts as cell-based.
Assay [6] concerns the target Fatty Acid Synthase Keto-reductase Domain (FASN KR) (Homo sapiens, UniProt P49327). Nature of the assay: Fatty Acid Synthase keto-reductase domain (FASN KR) inhibition, NADPH oxidation at 340 nm.
Protocol: After 20 minutes incubation at room temperature the plate was measured again (T2).
The decrease in absorbance was calculated as (Absorbance before incubation T1)−(Absorbance following incubation T2).
A plot of Controlmin versus test compound concentration was fitted to a 4-parameter logistic curve using a non-linear least squares regression method.

Sequence of Fatty Acid Synthase Keto-reductase Domain (FASN KR) (P49327 whole entry, the tested form may be a part): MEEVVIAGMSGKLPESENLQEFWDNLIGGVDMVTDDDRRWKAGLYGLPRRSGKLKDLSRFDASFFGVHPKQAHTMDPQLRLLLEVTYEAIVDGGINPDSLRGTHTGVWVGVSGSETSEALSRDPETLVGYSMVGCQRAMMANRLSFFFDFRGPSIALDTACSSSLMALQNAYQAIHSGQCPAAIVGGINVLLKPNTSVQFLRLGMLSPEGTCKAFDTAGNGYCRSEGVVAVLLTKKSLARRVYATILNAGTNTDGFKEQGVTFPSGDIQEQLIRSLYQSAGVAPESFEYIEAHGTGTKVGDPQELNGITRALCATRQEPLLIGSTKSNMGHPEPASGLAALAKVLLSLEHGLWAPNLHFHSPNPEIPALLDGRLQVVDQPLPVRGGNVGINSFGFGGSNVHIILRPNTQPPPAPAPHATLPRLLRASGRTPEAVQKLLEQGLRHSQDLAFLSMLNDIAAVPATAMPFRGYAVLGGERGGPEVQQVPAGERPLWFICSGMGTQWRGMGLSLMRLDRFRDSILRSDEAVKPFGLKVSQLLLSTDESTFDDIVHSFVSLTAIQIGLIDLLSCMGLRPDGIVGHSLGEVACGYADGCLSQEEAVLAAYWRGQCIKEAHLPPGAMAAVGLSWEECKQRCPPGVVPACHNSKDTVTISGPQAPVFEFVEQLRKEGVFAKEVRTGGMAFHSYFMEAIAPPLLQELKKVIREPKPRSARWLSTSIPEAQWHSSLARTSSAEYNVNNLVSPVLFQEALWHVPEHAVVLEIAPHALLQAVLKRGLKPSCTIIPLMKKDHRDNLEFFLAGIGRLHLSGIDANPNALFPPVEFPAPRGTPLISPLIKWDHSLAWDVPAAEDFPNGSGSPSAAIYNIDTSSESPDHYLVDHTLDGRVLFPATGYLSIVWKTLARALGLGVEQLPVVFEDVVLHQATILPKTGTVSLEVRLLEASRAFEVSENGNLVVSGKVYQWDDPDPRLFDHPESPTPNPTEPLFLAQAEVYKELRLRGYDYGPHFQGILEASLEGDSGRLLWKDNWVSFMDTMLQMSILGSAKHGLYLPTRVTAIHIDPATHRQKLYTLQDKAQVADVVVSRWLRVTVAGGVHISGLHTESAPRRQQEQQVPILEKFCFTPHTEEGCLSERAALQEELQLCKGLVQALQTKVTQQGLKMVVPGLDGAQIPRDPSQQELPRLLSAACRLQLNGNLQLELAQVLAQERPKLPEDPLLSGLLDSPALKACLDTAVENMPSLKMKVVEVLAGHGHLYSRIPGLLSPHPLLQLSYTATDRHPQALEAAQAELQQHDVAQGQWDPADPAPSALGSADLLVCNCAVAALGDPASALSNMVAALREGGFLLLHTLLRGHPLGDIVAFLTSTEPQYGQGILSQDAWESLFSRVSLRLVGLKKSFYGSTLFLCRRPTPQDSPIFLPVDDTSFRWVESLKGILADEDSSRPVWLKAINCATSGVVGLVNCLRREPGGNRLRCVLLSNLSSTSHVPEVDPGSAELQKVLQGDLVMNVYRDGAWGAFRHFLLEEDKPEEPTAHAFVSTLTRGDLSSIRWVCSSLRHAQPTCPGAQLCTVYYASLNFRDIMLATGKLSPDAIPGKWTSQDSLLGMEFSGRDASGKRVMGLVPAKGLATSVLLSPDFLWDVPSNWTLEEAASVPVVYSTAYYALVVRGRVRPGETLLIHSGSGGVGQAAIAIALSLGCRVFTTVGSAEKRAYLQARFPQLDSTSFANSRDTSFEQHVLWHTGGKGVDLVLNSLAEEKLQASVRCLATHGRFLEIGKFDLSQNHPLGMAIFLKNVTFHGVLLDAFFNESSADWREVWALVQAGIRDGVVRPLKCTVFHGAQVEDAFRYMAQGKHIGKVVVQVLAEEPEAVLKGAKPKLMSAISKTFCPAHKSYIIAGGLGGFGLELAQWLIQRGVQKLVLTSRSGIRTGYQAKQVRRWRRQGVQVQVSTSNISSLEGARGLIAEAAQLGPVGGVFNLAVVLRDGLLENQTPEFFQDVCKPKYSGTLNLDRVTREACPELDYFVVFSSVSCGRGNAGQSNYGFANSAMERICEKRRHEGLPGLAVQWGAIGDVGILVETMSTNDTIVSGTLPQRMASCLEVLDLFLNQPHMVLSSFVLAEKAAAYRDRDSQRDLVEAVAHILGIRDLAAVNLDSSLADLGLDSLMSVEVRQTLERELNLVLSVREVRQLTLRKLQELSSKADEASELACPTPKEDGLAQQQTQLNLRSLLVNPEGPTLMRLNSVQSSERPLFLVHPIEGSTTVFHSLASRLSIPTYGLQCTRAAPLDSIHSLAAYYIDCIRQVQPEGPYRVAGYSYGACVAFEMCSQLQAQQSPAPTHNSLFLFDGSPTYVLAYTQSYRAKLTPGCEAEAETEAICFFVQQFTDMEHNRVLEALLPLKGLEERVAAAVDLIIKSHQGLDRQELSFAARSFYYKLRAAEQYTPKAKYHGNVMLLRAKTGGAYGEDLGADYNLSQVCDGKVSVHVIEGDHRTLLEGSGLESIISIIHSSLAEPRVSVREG
T1 sequence (P49327 whole entry): as the sequence (P49327 whole entry, the tested form may be a part) above

In general, inhibition refers to the drop in the measured response relative to a control, in per cent. With `O=C(C1CC1)N1CC[C@@H](CN2C(=O)C3(CC3)N=C2c2ccc(-c3cccc4[nH]ncc34)c(F)c2)C1` [compound 237, (R)-6-((1-(cyclopropanecarbonyl)pyrrolidin-3-yl)methyl)-5-(3-fluoro-4-(1H-indazol-4-yl)phenyl)-4,6-diazaspiro[2.4]hept-4-en-7-one], in assay [1], the inhibition at 10 µM amounted to 100%. The IC50 is 0.0794 µM in assay [1]; above 10 µM in the assay on A2780 ovarian cells [2]; 0.0355 µM with A2780 ovarian cells [3]; 0.631 µM in assay [4]; around 0.0741 µM in assay [5]; 0.12 µM in assay [6].
Turning to `Cc1cc(C2=NC3(CC3)C(=O)N2C[C@@H]2CCN(C(=O)C3CC3)C2)ccc1-c1ccc2[nH]ccc2c1` [compound 238, (R)-5-(4-(1H-indol-5-yl)-3-methylphenyl)-6-((1-(cyclopropanecarbonyl)pyrrolidin-3-yl)methyl)-4,6-diazaspiro[2.4]hept-4-en-7-one], the inhibition at 10 µM in assay [1] was found to be 98%. The IC50 in assay [1] was 0.0437 µM; with A2780 ovarian cells [2], above 10 µM; in the assay on A2780 ovarian cells [3], 0.0427 µM; in assay [4], 0.245 µM; in assay [5], 0.0708 µM; in assay [6], 0.105 µM.
For the molecule `O=C(C1CC1)N1CC[C@@H](CN2C(=O)C3(CC3)N=C2c2ccc(-c3ccc4occc4c3)cc2F)C1` [compound 240, (R)-5-(4-(benzofuran-5-yl)-2-fluorophenyl)-6-((1-(cyclopropanecarbonyl)pyrrolidin-3-yl)methyl)-4,6-diazaspiro[2.4]hept-4-en-7-one], in assay [1], the inhibition at 10 µM came out at 101%. Moreover, the IC50 in assay [1] was 0.0123 µM; with A2780 ovarian cells [2], above 6.17 µM; in the assay on A2780 ovarian cells [3] it was 0.2 µM; in assay [4], 0.537 µM; in assay [5], around 0.166 µM; in assay [6] it was 0.0263 µM.
Regarding `O=C(C1CC1)N1CC[C@@H](CN2C(=O)C3(CC3)N=C2c2ccc(-c3ccc4sccc4c3)cc2F)C1` [compound 241, (R)-5-(4-(benzo[b]thiophen-5-yl)-2-fluorophenyl)-6-((1-(cyclopropanecarbonyl)pyrrolidin-3-yl)methyl)-4,6-diazaspiro[2.4]hept-4-en-7-one], the inhibition at 10 µM in assay [1] was determined as 100%. Moreover, the IC50 in assay [1] was 0.0219 µM; in the assay on A2780 ovarian cells [2] it was above 10 µM; in the assay with A2780 ovarian cells [3], around 0.0759 µM; in assay [4] it was 0.166 µM; in assay [5], around 0.0562 µM; in assay [6], 0.0288 µM.
In the case of `Cc1cc2cc(-c3ccc(C4=NC5(CC5)C(=O)N4C[C@@H]4CCN(C(=O)C5CC5)C4)c(F)c3)ccc2o1` [compound 242, (R)-6-((1-(cyclopropanecarbonyl)pyrrolidin-3-yl)methyl)-5-(2-fluoro-4-(2-methylbenzofuran-5-yl)phenyl)-4,6-diazaspiro[2.4]hept-4-en-7-one], in assay [1], the inhibition at 10 µM came out at 103%. Besides, the IC50 was 0.0191 µM in assay [1]; above 10 µM with A2780 ovarian cells [2]; around 0.724 µM in the assay with A2780 ovarian cells [3]; around 1.58 µM in assay [4]; around 0.646 µM in assay [5]; 0.0355 µM in assay [6].
`Cc1cc2cc(-c3ccc(C4=NC5(CC5)C(=O)N4C[C@@H]4CCN(C(=O)C5CC5)C4)c(F)c3)ccc2s1` [compound 243, (R)-6-((1-(cyclopropanecarbonyl)pyrrolidin-3-yl)methyl)-5-(2-fluoro-4-(2-methylbenzo[b]thiophen-5-yl)phenyl)-4,6-diazaspiro[2.4]hept-4-en-7-one]: the inhibition at 10 µM in assay [1] came to 104%. Also, the IC50 was 0.0224 µM in assay [1]; above 6.17 µM in the assay on A2780 ovarian cells [2]; 0.646 µM in the assay with A2780 ovarian cells [3]; 0.832 µM in assay [4]; around 0.24 µM in assay [5]; 0.0417 µM in assay [6].
For the molecule `Cc1oc2ccc(-c3ccc(C4=NC5(CC5)C(=O)N4C[C@@H]4CCN(C(=O)C5CC5)C4)c(F)c3)cc2c1C` [compound 244, (R)-6-((1-(cyclopropanecarbonyl)pyrrolidin-3-yl)methyl)-5-(4-(2,3-dimethylbenzofuran-5-yl)-2-fluorophenyl)-4,6-diazaspiro[2.4]hept-4-en-7-one], in assay [1], the inhibition at 10 µM came to 101%. The IC50 was 0.0562 µM in assay [1]; above 10 µM in the assay on A2780 ovarian cells [2]; around 2.24 µM in the assay on A2780 ovarian cells [3]; 1.82 µM in assay [4]; around 1.41 µM in assay [5]; 0.0562 µM in assay [6].
As to `Cc1sc2ccc(-c3ccc(C4=NC5(CC5)C(=O)N4C[C@@H]4CCN(C(=O)C5CC5)C4)c(F)c3)cc2c1C` [compound 245], in assay [1], the inhibition at 10 µM worked out at 98%. Further, the IC50 was 0.0324 µM in assay [1]; above 10 µM in the assay on A2780 ovarian cells [2]; 1.55 µM with A2780 ovarian cells [3]; around 1.7 µM in assay [4]; around 0.646 µM in assay [5]; 0.0372 µM in assay [6].
As for `O=C(C1CC1)N1CC[C@@H](CN2C(=O)C3(CC3)N=C2c2ccc(-c3ccc4[nH]ccc4c3)cc2F)C1` [compound 246, (R)-6-((1-(cyclopropanecarbonyl)pyrrolidin-3-yl)methyl)-5-(2-fluoro-4-(1H-indol-5-yl)phenyl)-4,6-diazaspiro[2.4]hept-4-en-7-one], the inhibition at 10 µM in assay [1] stood at 101%. For the same molecule, the IC50 in assay [1] was 0.017 µM; in the assay with A2780 ovarian cells [2] it was above 10 µM; with A2780 ovarian cells [3], around 0.00501 µM; in assay [4], 0.0155 µM; in assay [5], 0.00479 µM; in assay [6] it was 0.038 µM.
With `O=C(C1CC1)N1CC[C@@H](CN2C(=O)C3(CC3)N=C2c2ccc(-c3ccc4cc[nH]c4c3)cc2F)C1` [compound 247, (R)-6-((1-(cyclopropanecarbonyl)pyrrolidin-3-yl)methyl)-5-(2-fluoro-4-(1H-indol-6-yl)phenyl)-4,6-diazaspiro[2.4]hept-4-en-7-one], the inhibition at 10 µM in assay [1] turned out to be 103%. For the same molecule, the IC50 in assay [1] was 0.0162 µM; in the assay with A2780 ovarian cells [2], above 10 µM; in the assay with A2780 ovarian cells [3], 0.00501 µM; in assay [4], 0.0234 µM; in assay [5], 0.00724 µM; in assay [6], 0.0178 µM.
For `O=C(C1CC1)N1CC[C@@H](CN2C(=O)C3(CC3)N=C2c2ccc(-c3ccc4cccnc4c3)cc2F)C1` [compound 249, (R)-6-((1-(cyclopropanecarbonyl)pyrrolidin-3-yl)methyl)-5-(2-fluoro-4-(quinolin-7-yl)phenyl)-4,6-diazaspiro[2.4]hept-4-en-7-one], in assay [1], the inhibition at 10 µM amounted to 102%. Also, the IC50 in assay [1] is 0.017 µM; in the assay with A2780 ovarian cells [2] it was above 10 µM; with A2780 ovarian cells [3], around 0.0055 µM; in assay [4], 0.0166 µM; in assay [5], 0.00417 µM; in assay [6], 0.0195 µM.
In the case of `O=C(C1CC1)N1CC[C@@H](CN2C(=O)C3(CC3)N=C2c2ccc(-c3cccc4ncccc34)cc2F)C1` [compound 250, (R)-6-((1-(cyclopropanecarbonyl)pyrrolidin-3-yl)methyl)-5-(2-fluoro-4-(quinolin-5-yl)phenyl)-4,6-diazaspiro[2.4]hept-4-en-7-one], in assay [1], the inhibition at 10 µM came to 100%. For the same molecule, the IC50 in assay [1] is 0.049 µM; in the assay on A2780 ovarian cells [2], above 10 µM; in the assay with A2780 ovarian cells [3], 0.302 µM; in assay [4], 0.692 µM; in assay [5], 0.234 µM; in assay [6], 0.0692 µM.
Regarding `O=C(C1CC1)N1CC[C@@H](CN2C(=O)C3(CC3)N=C2c2ccc(-c3nc4ccccc4o3)cc2F)C1` [compound 251, (R)-5-(4-(benzo[d]oxazol-2-yl)-2-fluorophenyl)-6-((1-(cyclopropanecarbonyl)pyrrolidin-3-yl)methyl)-4,6-diazaspiro[2.4]hept-4-en-7-one], the inhibition at 10 µM in assay [1] stood at 101%. Further, the IC50 in assay [1] is 0.0324 µM; in the assay with A2780 ovarian cells [2], above 10 µM; in the assay with A2780 ovarian cells [3], 0.0724 µM; in assay [4], 0.138 µM; in assay [5], around 0.0417 µM; in assay [6] it was 0.0427 µM.
Turning to `O=C(C1CC1)N1CC[C@@H](CN2C(=O)C3(CC3)N=C2c2ccc(-c3ccc4[nH]ncc4c3)cc2F)C1` [compound 253, (R)-6-((1-(cyclopropanecarbonyl)pyrrolidin-3-yl)methyl)-5-(2-fluoro-4-(1H-indazol-5-yl)phenyl)-4,6-diazaspiro[2.4]hept-4-en-7-one], the inhibition at 10 µM in assay [1] came out at 97%. The IC50 in assay [1] is 0.0355 µM; in the assay with A2780 ovarian cells [2], above 10 µM; with A2780 ovarian cells [3], 0.012 µM; in assay [4] it was 0.0646 µM; in assay [5], 0.0141 µM; in assay [6], 0.0275 µM.
Take `N#Cc1cc2cc(-c3ccc(C4=NC5(CC5)C(=O)N4C[C@@H]4CCN(C(=O)C5CC5)C4)c(F)c3)ccc2o1` [compound 254, (R)-5-(4-(6-((1-(cyclopropanecarbonyl)pyrrolidin-3-yl)methyl)-7-oxo-4,6-diazspiro[2.4]hept-4-en-5-yl)-3-fluorophenyl)benzofuran-2-carbonitrile]: the inhibition at 10 µM in assay [1] is 100%. Moreover, the IC50 in assay [1] was 0.0295 µM; with A2780 ovarian cells [2] it was above 10 µM; in the assay on A2780 ovarian cells [3], 0.437 µM; in assay [4] it was 1.38 µM; in assay [5], 0.224 µM; in assay [6], 0.0501 µM.
